From US8470765B2, “Polypeptides and antibacterial or antiseptic use of same” (AnGes MG, Inc., priority 2009, dated 2013)
In brackets after ≈: the same amount, converted by molar mass. Read-outs that look alike come from different tables or passages of the source. No end group written: not given here.

Tests used:
[1] = test system: Alternaria alternata JCM5800; settings: JCM5800
[2] = test system: Pseudomonas aeruginosa 8 (clinical strain)
Description: (§1) Bacteria (Escherichia coli ATCC 25922, Pseudomonas aeruginosa ATCC 27853, Staphylococcus aureus ATCC29213, Klebsiella pneumoniae JCM 1662, Enterobacter cloacae JCM 1232, Enterobacter aerogenes JCM 1235 and Staphylococcus epidermidis JCM 2414) were inoculated to Mueller-Hinton broth: MHB or LB medium, and cultured at a temperature and period suited for each strain. From the thus obtained colonies, each strain was inoculated to a fresh liquid medium and cultured for 16 to 20 hours. Then an aliquot having a volume (10 to 50 appropriate to each strain was inoculated to a fresh liquid medium and cultured for 4 to 6 hours, followed by the measurement of the absorbance at 600 nm. After comparing the turbidity with McFarland #0.5, the resultant was diluted with a medium. Each strain was added to about 10^5 CFU/mL (final concentration).
(§2) Further, the antibacterial activities against the clinical strains collected and isolated from infected patients were also examined. The tests were carried out for two methicillin-resistant Staphylococcus (MRSA) (MRSA (i) and (ii)), two methicillin-sensitive Staphylococcus (MSSA) (MSSA (i) and (ii)), five Pseudomonas aeruginosa, Pseudomonas aeruginosa 1, Pseudomonas aeruginosa 6, Pseudomonas aeruginosa 8. Pseudomonas aeruginosa 9 and Pseudomonas aeruginosa 12, totally 9 clinical strains. The MRSA and MSSA clinical strains were tested by the same method as Staphylococcus aureus ATCC29213, and Pseudomonas clinical strains were tested by the same method as Pseudomonas aeruginosa ATCC 27853.
(§3) Each of the peptide solutions to be tested was diluted with MHB to obtain a solution of 128 μg/mL. This solution was serially diluted with the medium to prepare peptide-containing media having concentrations of 128, 64, 32, 16, 8.0, 4.0 and 2.0 μg/mL respectively. […] By dilution with sterilized purified water to 1.0 mg/mL, positive control-containing media having concentrations of 16, 8, 4, 2, 1.0, 0.25, 0.12 and 0.06 μg/mL, respectively for TOB; 0.5, 0.12 and 0.06 μg/mL, respectively, for OX; and 16, 8, 4, 2, 1.0, 0.25, 0.12, 0.06, 0.06, 0.03 and 0.008 μg/mL, respectively, for MEPM, were prepared.
(§4) To a 96-well microtiter plate, 0.1 mL of the inoculation solution and 0.1 mL of the peptide- or positive control-containing medium having the respective concentration were added, and cultured at 37° C. for 16 to 24 hours (or a time period suited for the growth of the respective strain). The well not containing the sample was used as a negative control. After the culturing, the growth was visually observed, and the minimum concentration at which the growth was inhibited was defined as the minimum growth inhibition concentration (MIC).
(§5) The medium used in this test for bacteria was Mueller-Hinton broth. Independent experiments were carried out twice or more for each strain.

[3] = test system: Salmonella enteritidis IID 604
[4] = test system: Bacillus subtilis NBRC3134
[5] = test system: Trichophyton mentagrophytes NBRC6124; settings: NBRC6124
[6] = test system: methicillin-sensitive Staphylococcus (MSSA) MSSA(i); experiment: organism not typed; settings: Table 4; clinical strain; first/second value where not identical
Description: as §1, §2, §3, §4, §5

[7] = test system: methicillin-resistant Staphylococcus (MRSA) MRSA(ii); experiment: organism not typed; settings: for MIC: read-out: MIC MRSA(ii)
Description: as §1, §2, §3, §4, §5

[8] = test system: methicillin-resistant Staphylococcus (MRSA) MRSA(i); experiment: organism not typed; settings: for MIC: read-out: MIC MRSA(i)
Description: as §1, §2, §3, §4, §5

[9] = test system: methicillin-sensitive Staphylococcus (MSSA) MSSA(ii); experiment: organism not typed; settings: for MIC: read-out: MIC MSSA(ii)
Description: as §1, §2, §3, §4, §5

[10] = test system: Pseudomonas aeruginosa 12 (clinical strain); experiment: microbe, parasite or virus in culture; settings: for MIC: Pseudomonas aeruginosa, read-out: MIC Pseudomonas aeruginosa 12
Description: as §1, §2, §3, §4, §5

[11] = test system: Pseudomonas aeruginosa 6 (clinical strain); experiment: microbe, parasite or virus in culture; settings: for MIC: Pseudomonas aeruginosa, read-out: MIC Pseudomonas aeruginosa 6
Description: as §1, §2, §3, §4, §5

[12] = test system: Pseudomonas aeruginosa 1 (clinical strain); experiment: microbe, parasite or virus in culture; settings: for MIC: Pseudomonas aeruginosa, read-out: MIC Pseudomonas aeruginosa 1
Description: as §1, §2, §3, §4, §5

[13] = test system: Pseudomonas aeruginosa 9 (clinical strain); experiment: microbe, parasite or virus in culture; settings: for MIC: Pseudomonas aeruginosa, read-out: MIC Pseudomonas aeruginosa 9
Description: as §1, §2, §3, §4, §5

[14] = test system: Aspergillus niger NBRC 9455
[15] = Table 4, clinical strain, first/second value where not identical
[16] = Table 4, two tests, first/second value where not identical
[17] = methicillin-resistant Staphylococcus (ii)
[18] = methicillin-resistant Staphylococcus (i)
[19] = methicillin-sensitive Staphylococcus (ii)

Compound | MIC Alternaria alternata [1] | MIC Candida krusei (Candida krusei NBRC1395; NBRC1395) | MIC Pseudomonas aeruginosa 8 ([2]; 8 (clinical strain)) | MIC Salmonella Enteritidis ([3]; IID 604) | MIC Bacillus subtilis ([4]; NBRC3134) | MIC Fusarium solani (Fusarium solani JCM11383; JCM11383) | MIC Trichophyton mentagrophytes [5] | MIC MSSA(i) [6] | MIC Pseudomonas aeruginosa 12 [10, 15] | MIC Pseudomonas aeruginosa 6 [11, 15] | MIC Pseudomonas aeruginosa 9 [13, 15] | MIC Aspergillus niger [14, 16] | MIC Fusarium solani (Fusarium solani JCM11383; [16]) | MIC MRSA(ii) [7, 17] | MIC MRSA(i) [8, 18] | MIC MSSA(ii) [9, 19] | MIC Pseudomonas aeruginosa 1 [12, 15] | further results
GRLKRMGKRLKRKIQKWARW-NH2 [SRP-14] | 32 µg/mL | 32 µg/mL | 16 µg/mL | 4 µg/mL | 4 µg/mL | 4 µg/mL | 16 µg/mL | 16/32 | 8/16 | 8/16 | 16/32 | 4/8 | – | – | – | – | – | MIC MRSA(ii) [7, 15]: 16/32; MIC MRSA(i) [8, 15]: 16/32; MIC MSSA(ii) [9, 15]: 16/32; MIC Pseudomonas aeruginosa 1 ([12]; 1 (clinical strain)): 16 µg/mL
NC[C@H]1O[C@H](O[C@H]2[C@H](O)[C@@H](O[C@H]3O[C@H](CO)[C@@H](O)[C@H](N)[C@H]3O)[C@H](N)C[C@@H]2N)[C@H](N)C[C@@H]1O [tobramycin, reference compound] | – | – | – | – | – | – | – | – | – | – | – | – | – | – | – | – | – | MIC [7]: > 16000 µg/mL; MIC [8]: > 16000 µg/mL; MIC [9]: 4 µg/mL (≈ 0.00856 mM); MIC [10]: < 4000 µg/mL; MIC [11]: < 4000 µg/mL; MIC [12]: > 16000 µg/mL; MIC [13]: < 4000 µg/mL
KLIFLHRLKRELRKRLKRKLR-NH2 [SRP-13] | 64 µg/mL | 32 µg/mL | 16 µg/mL | 4 µg/mL | 4 µg/mL | – | 32 µg/mL | 16/32 | 8/16 | 8/16 | – | – | 4/8 | 64 µg/mL | 64 µg/mL | 16 µg/mL | 16/32 | MIC Pseudomonas aeruginosa 9 ([13]; 9 (clinical strain)): 64 µg/mL; MIC Aspergillus niger ([14]; NBRC 9455): 16 µg/mL
RLKRMRKRLKRKLRLW-NH2 [SRP-17] | 32 µg/mL | 32 µg/mL | – | 8 µg/mL | 8 µg/mL | 8 µg/mL | 16 µg/mL | – | 16/64 | 32/64 | 64/128 | 8/16 | – | – | – | – | 32/64 | MIC Pseudomonas aeruginosa 8 [2, 15]: 64/128
RLKRMRKRLKRKLRLWHRKRYK-NH2 [SRP-8] | 32 µg/mL | 32 µg/mL | 16 µg/mL | 64 µg/mL | 8 µg/mL | 4 µg/mL | 32 µg/mL | 32/64 | 16/32 | – | 16/64 | 16/32 | – | 64 µg/mL | 64 µg/mL | 32 µg/mL | 16/32 | MIC Pseudomonas aeruginosa 6 ([11]; 6 (clinical strain)): 16 µg/mL
KLIFLRELRRLRKRLKRKLR-NH2 [SRP-16] | 64 µg/mL | 32 µg/mL | 16 µg/mL | 4 µg/mL | – | – | 32 µg/mL | 16/32 | 8/16 | – | – | 8/16 | 4/8 | 64 µg/mL | 32 µg/mL | 16 µg/mL | 16/32 | MIC Bacillus subtilis [4, 16]: 8/4; MIC Pseudomonas aeruginosa 6 ([11]; 6 (clinical strain)): 16 µg/mL; MIC Pseudomonas aeruginosa 9 ([13]; 9 (clinical strain)): 64 µg/mL
IFLHRLKRMRKRLKRKLRLW-OH [SRP-7] | 32 µg/mL | – | 32 µg/mL | 4 µg/mL | 4 µg/mL | 8 µg/mL | 32 µg/mL | – | – | 16/64 | 64/128 | 8/16 | – | – | – | – | 32/64 | MIC Candida krusei (Candida krusei NBRC1395; [16]): 64/32; MIC Pseudomonas aeruginosa 12 ([10]; 12 (clinical strain)): 16 µg/mL
GRLKRMGERLKRKIQKWIRW-NH2 [SRP-15] | 64 µg/mL | 16 µg/mL | 16 µg/mL | – | 4 µg/mL | – | 32 µg/mL | 16/32 | 8/16 | – | 8/64 | 8/16 | 16/32 | – | 16 µg/mL | 16 µg/mL | – | MIC Salmonella Enteritidis [3, 16]: 8/16; MIC MRSA(ii) [7, 15]: 16/32; MIC Pseudomonas aeruginosa 6 ([11]; 6 (clinical strain)): 16 µg/mL; MIC Pseudomonas aeruginosa 1 ([12]; 1 (clinical strain)): 16 µg/mL
LIFLHRLKRMRKRLKRKLRL-NH2 [SRP-12] | – | – | – | – | – | – | – | 16 µg/mL | – | 32/64 | 16/64 | 8/16 | – | – | 32 µg/mL | 16 µg/mL | 16/32 | MIC Pseudomonas aeruginosa 8 [2, 15]: 32/64; MIC MRSA(ii) [7, 15]: 32/64; MIC Pseudomonas aeruginosa 12 ([10]; 12 (clinical strain)): 16 µg/mL
KNLRRIIRKIIHIIKKYG-NH2 [Ovispirin-1, reference compound] | 64 µg/mL | 16 µg/mL | – | 16 µg/mL | 2 µg/mL | – | 32 µg/mL | 16/32 | 16/32 | 32/64 | 32/128 | – | 4/8 | 32 µg/mL | 32 µg/mL | 16 µg/mL | 16/64 | MIC Pseudomonas aeruginosa 8 [2, 15]: 32/64; MIC Aspergillus niger ([14]; NBRC 9455): 32 µg/mL
C[C@@H](O)[C@H]1C(=O)N2C(C(=O)O)=C(S[C@@H]3CN[C@H](C(=O)N(C)C)C3)[C@H](C)[C@H]12 [meropenem, reference compound] | – | – | – | – | – | – | – | – | – | – | – | – | – | – | – | – | – | MIC [7]: 8 to 16 µg/mL (≈ 0.0209 to 0.0417 mM); MIC [8]: < 4000 µg/mL; MIC [9]: 4 to 8 µg/mL (≈ 0.0104 to 0.0209 mM); MIC [10]: < 4000 µg/mL; MIC [11]: 8 to 16 µg/mL (≈ 0.0209 to 0.0417 mM); MIC [12]: < 4000 µg/mL; MIC [13]: < 4000 µg/mL
